Activity calls are given as the source filed them.
Experiments:
[1] = molecular target: T1, Low molecular weight phosphotyrosine protein phosphatase (Homo sapiens, UniProt P24666); assay type: functional; conditions: read-out: IC50_Mean;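 further: Dose-response confirmation assay measuring inhibition of LMPTP enzyme activity by fluorescence intensity read-out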
T1 sequence (P24666 whole entry): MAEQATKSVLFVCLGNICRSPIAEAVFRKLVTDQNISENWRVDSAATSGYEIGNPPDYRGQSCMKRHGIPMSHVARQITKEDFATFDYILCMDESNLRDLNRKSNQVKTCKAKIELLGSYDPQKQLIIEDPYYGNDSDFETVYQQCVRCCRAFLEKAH

[2] = molecular target: T2, Short transient receptor potential channel 4 (Mus musculus, UniProt Q9QUQ5); test: mouse TRPC4 channel inhibitors, dose response, cell-based, HEK293 TRPC4/mu-opioid, Fluo-4 calcium (AID 434942); assay type: functional;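 further: potency of inhibitors blocking the TRPC4 calcium response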
T2 sequence (Q9QUQ5 whole entry): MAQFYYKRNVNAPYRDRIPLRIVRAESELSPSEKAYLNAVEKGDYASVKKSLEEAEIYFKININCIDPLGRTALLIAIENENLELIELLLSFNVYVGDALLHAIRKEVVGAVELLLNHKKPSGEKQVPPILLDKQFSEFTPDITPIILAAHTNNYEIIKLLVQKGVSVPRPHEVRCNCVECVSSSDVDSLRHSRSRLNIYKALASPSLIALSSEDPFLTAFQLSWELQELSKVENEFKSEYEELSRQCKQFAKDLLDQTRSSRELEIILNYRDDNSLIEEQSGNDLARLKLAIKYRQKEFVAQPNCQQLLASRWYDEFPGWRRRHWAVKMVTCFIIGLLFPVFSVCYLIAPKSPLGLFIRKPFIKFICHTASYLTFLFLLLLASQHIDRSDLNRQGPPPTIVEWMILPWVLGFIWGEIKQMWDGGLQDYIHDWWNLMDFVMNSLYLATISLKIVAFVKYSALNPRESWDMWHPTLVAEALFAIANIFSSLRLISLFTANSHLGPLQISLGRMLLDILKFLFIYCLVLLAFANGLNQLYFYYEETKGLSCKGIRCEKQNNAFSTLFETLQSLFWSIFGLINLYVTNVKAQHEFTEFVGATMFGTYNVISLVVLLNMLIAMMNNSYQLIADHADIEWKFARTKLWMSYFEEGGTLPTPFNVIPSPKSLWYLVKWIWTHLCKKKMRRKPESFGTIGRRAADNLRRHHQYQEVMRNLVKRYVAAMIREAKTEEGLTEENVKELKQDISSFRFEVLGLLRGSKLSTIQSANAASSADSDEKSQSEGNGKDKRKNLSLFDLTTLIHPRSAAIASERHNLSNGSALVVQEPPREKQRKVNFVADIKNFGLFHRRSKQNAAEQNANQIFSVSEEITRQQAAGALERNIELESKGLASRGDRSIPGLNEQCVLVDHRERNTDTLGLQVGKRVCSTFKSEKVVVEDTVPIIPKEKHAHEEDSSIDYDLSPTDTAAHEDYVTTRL

[3] = molecular target: Cytochrome P450 2D6 (Homo sapiens, UniProt P10635);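 further: CYP2D6 member of a cytochrome P450 panel assay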
[4] = molecular target: Cytochrome P450 2C19 (Homo sapiens, UniProt P33261); test: Cytochrome panel assay with activity outcomes. Panel member name: p450-cyp2c19 Compounds with AC50 equal or less than 10 uM are considered active; assay type: functional; conditions: read-out: AC50
[5] = molecular target: T3, Cytochrome P450 1A2 (Homo sapiens, UniProt P05177);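 further: PubChem cytochrome P450 panel assay, CYP1A2 panel member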
T3 sequence (P05177 whole entry): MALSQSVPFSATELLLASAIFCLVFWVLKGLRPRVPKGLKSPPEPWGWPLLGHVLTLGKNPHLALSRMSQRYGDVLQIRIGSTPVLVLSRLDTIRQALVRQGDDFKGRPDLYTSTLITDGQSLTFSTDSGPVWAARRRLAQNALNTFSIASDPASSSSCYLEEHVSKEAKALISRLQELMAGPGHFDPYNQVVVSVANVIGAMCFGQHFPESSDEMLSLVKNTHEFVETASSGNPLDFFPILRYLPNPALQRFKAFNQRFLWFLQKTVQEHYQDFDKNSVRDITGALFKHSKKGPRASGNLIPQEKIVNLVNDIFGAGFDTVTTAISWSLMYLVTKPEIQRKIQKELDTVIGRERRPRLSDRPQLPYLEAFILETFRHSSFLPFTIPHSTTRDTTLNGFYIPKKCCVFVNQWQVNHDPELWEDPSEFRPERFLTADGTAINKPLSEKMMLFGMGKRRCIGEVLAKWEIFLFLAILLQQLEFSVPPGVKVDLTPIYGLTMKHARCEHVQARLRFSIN

[6] = molecular target: T4, fMet-Leu-Phe receptor (Homo sapiens, UniProt P21462); test: FPR ligands, dose response (AID 519); assay type: functional
T4 sequence (P21462 whole entry): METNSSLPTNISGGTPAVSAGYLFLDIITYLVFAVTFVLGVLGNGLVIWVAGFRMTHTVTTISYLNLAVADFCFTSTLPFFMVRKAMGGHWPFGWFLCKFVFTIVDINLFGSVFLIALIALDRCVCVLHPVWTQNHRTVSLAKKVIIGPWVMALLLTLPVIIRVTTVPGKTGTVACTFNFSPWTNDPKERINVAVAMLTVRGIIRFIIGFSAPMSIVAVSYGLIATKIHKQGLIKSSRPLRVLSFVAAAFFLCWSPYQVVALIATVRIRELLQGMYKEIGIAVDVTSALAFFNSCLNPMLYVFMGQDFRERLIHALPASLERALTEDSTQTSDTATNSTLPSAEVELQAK

[7] = tested on: Streptococcus sp. 'group A'; test: growth inhibition of control SK(-) GAS strain, dose response, counter-screen for streptokinase expression inhibitor project, luminescence, kanamycin, BacTiterGlo, confirmation (AID 1900); assay type: functional, organism-based
[8] = tested on: Streptococcus; test: Group A Streptococcus viability loss, dose response, counter-screen for streptokinase expression inhibitor project, luminescence, BacTiterGlo (AID 1915); assay type: functional, organism-based;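 further: potency for reduction of bacterial viability or growth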
[9] = molecular target: T5, Streptokinase A (Streptococcus pyogenes serotype M1, UniProt P10520); test: S. pyogenes streptokinase expression inhibitors, potency, dose response, plasminogen activation absorbance, OD405 (AID 1914); assay type: functional, Streptococcus pyogenes M1 GAS;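 further: secreted streptokinase activity via plasminogen activation per viability signal from cell pellet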
T5 sequence (P10520 whole entry): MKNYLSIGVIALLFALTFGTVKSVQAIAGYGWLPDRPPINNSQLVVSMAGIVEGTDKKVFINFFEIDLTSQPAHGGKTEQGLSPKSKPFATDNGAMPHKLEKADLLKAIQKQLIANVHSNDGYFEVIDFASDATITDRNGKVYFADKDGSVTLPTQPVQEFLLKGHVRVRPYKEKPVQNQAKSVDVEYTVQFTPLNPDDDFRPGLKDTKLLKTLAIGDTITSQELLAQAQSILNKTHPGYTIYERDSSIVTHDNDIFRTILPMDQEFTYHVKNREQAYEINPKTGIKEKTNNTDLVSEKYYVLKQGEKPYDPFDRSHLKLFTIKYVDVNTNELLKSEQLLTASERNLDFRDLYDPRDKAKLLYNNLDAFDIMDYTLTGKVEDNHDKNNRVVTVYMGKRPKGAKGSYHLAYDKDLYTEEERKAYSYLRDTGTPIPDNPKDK

[10] = cytotoxicity in HEK-293T cells, dose response, cytotoxicity control for BCR NF-kB inhibitor project, luminescence, B-cell screen hits (AID 489021); assay type: functional, cell-based;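 further: HEK-293T cells carrying an NF-kB luciferase reporter; cells exposed to compound for about 14 hours before viability readout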
[11] = tested on: BJ; test: cytotoxicity toward BJ-TERT fibroblasts, dose response, cell-based, RAS-independent, luminescence (AID 1933); assay type: functional; conditions: Homo sapiens
[12] = cytotoxicity toward DRD oncogenic fibroblasts, dose response, cell-based, non-viral oncogenic, luminescence (AID 1934); assay type: functional; conditions: Homo sapiens
[13] = tested on: INS1; test: beta cell apoptosis inhibitors, cytokine rescue, dose response, luminescence, retest (AID 449756); assay type: functional, cell-based; conditions: Rattus norvegicus;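 further: cell death triggered by IL-1 beta plus TNF-alpha plus IFN-gamma mixture; protective hits raise ATP signal compared with cytokine alone wells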
[14] = cytotoxicity toward NIH3T3 fibroblasts, dose response, counter-screen, cell-based, ATP luminescence, mouse fibroblasts (AID 2010); assay type: functional;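 further: cells exposed to compound for about 90 hours before reading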
[15] = inhibitors of intracellular T. cruzi replication, confirmation, NIH3T3 host cells, beta-gal luminescence (AID 2044); assay type: functional, cell-based;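 further: intracellular parasites grown in NIH/3T3 mouse fibroblasts as host cells; luminescent beta-galactosidase reporter signal from transgenic T. cruzi replicating inside host cells; inhibitors lower the luminescence signal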
[16] = tested on: BJ; test: cells; assay type: functional, cell-based; conditions: Homo sapiens
[17] = tested on: BJ; test: cytotoxicity toward BJ-TERT-LT-ST fibroblasts, dose response, cell-based, RAS-independent, luminescence (AID 1935); assay type: functional; conditions: Homo sapiens;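 further: BJ fibroblasts immortalized with TERT plus LT and ST oncogenes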
[18] = molecular target: Nonstructural protein 1 (Influenza A virus, UniProt Q194T2); assay type: functional, Influenza A virus (A/California/07/2009(H1N1))
[19] = molecular target: T6, Corticotropin-releasing factor receptor 2/Corticotropin-releasing factor-binding protein (Homo sapiens, UniProt P24387+Q13324); test: Dose Response confirmation of uHTS hits for small molecule antagonists of the CRF-binding protein and CRF-R2 receptor complex.; assay type: functional; conditions: read-out: IC50_Mean
T6 sequence (Q13324 whole entry): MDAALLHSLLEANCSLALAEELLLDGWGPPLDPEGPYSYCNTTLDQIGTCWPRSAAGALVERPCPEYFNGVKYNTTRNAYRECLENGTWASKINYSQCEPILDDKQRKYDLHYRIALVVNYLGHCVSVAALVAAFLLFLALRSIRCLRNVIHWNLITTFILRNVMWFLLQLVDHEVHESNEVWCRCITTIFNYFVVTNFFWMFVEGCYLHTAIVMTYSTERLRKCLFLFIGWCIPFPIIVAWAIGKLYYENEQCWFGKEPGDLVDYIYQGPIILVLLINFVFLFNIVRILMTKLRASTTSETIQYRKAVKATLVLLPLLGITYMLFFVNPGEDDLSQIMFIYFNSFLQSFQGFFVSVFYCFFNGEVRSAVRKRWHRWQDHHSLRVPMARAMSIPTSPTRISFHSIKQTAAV
T6 sequence (P24387 whole entry): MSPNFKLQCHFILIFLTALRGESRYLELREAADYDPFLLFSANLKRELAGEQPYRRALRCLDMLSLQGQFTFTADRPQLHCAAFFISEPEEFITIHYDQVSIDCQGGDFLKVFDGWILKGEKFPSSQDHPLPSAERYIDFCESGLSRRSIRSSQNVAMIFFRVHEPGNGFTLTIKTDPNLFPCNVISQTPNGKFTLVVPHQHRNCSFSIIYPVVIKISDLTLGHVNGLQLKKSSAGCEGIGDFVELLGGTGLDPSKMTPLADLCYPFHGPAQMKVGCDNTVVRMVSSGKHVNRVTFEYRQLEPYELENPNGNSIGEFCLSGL

[20] = molecular target: T6, Corticotropin-releasing factor receptor 2/Corticotropin-releasing factor-binding protein; test: activators of CRF receptor 2 with binding protein – uHTS hits, confirmation (AID 602473); assay type: functional; conditions: read-out: EC50_Mean
[21] = molecular target: Cytochrome P450 2C9 (Homo sapiens, UniProt P11712)
[22] = molecular target: Genome polyprotein (dengue virus type 2, UniProt P29990); test: Dengue-2 NS5 methyltransferase inhibitors, primary screen, biochemical, confirmation dose response (AID 588689); assay type: functional
[23] = HepG2 cell cytotoxicity, dose response, cytotoxicity control for Shn3 inhibitor project, CellTiter-Glo, cherry-picked (AID 624134); assay type: functional, cell-based
[24] = Shn3 3'UTR reporter inhibitors, dose response, cell-based, Clone20 osteoblasts, firefly luciferase, cherry-picked (AID 624132); assay type: functional;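 further: firefly luciferase luminescence from reporter carrying the Shn3 3'UTR in osteoblasts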
[25] = control 3'UTR Renilla luciferase suppression, dose response, counter-screen for Shn3 inhibitor project, cell-based, Clone20-Shn3RL, cherry-picked (AID 624133); assay type: functional

Sequence of Nonstructural protein 1 (Q194T2 whole entry): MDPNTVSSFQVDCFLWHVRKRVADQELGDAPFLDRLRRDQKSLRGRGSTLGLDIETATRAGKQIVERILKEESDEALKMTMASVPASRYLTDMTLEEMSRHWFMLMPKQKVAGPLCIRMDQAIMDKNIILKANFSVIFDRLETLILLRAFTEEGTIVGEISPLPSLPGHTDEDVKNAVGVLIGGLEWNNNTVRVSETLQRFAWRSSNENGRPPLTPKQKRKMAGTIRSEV
Sequence of Genome polyprotein (P29990 2492-3391 limits assumed): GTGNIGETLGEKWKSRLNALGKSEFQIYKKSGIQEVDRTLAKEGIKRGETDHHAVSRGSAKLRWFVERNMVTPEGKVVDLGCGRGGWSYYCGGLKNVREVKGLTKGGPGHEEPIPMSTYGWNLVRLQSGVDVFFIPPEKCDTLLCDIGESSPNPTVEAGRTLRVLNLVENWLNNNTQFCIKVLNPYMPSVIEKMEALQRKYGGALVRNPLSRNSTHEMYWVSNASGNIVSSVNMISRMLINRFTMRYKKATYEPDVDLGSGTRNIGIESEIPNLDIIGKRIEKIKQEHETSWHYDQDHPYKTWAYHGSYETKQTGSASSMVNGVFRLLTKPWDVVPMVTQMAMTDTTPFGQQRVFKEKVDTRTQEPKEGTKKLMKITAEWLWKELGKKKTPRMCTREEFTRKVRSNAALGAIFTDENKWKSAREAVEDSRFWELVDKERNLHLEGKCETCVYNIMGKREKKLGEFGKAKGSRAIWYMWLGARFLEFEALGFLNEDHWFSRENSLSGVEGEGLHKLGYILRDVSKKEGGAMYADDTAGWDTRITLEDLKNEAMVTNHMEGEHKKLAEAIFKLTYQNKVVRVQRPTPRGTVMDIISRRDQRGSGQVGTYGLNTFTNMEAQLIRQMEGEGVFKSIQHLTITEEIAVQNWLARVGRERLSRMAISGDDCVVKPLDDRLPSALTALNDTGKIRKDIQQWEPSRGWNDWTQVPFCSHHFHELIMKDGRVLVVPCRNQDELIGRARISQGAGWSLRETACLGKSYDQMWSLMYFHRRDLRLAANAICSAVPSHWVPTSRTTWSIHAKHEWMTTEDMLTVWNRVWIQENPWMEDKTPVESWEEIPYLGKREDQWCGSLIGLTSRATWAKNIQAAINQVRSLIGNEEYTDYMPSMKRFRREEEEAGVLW
Sequence of Cytochrome P450 2C19 (P33261 whole entry): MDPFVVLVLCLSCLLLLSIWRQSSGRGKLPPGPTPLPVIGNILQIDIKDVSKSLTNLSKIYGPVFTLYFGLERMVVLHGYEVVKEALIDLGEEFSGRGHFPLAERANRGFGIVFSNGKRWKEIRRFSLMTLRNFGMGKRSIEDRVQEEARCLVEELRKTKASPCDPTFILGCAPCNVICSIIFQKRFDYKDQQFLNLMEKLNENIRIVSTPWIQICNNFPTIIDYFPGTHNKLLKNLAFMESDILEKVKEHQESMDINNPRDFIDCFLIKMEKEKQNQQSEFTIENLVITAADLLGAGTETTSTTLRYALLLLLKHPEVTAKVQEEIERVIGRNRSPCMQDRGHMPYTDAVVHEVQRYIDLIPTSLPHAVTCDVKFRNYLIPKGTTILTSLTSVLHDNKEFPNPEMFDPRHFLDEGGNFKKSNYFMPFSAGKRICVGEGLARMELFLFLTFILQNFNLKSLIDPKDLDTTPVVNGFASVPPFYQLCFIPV
Sequence of Cytochrome P450 2D6 (P10635 whole entry): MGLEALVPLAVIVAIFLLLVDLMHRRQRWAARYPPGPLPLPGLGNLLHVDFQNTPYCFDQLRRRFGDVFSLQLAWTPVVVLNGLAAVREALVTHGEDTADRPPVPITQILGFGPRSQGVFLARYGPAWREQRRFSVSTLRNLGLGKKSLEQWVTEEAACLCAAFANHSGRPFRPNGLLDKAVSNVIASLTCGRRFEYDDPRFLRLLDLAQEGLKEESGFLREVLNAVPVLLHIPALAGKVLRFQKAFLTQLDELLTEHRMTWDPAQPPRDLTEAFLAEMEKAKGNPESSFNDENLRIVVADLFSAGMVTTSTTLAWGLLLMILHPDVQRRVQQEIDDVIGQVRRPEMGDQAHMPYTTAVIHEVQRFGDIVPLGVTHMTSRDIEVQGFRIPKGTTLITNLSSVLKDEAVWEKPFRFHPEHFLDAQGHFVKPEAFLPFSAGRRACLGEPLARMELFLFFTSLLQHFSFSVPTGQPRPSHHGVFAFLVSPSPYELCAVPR
Sequence of Cytochrome P450 2C9 (P11712 whole entry): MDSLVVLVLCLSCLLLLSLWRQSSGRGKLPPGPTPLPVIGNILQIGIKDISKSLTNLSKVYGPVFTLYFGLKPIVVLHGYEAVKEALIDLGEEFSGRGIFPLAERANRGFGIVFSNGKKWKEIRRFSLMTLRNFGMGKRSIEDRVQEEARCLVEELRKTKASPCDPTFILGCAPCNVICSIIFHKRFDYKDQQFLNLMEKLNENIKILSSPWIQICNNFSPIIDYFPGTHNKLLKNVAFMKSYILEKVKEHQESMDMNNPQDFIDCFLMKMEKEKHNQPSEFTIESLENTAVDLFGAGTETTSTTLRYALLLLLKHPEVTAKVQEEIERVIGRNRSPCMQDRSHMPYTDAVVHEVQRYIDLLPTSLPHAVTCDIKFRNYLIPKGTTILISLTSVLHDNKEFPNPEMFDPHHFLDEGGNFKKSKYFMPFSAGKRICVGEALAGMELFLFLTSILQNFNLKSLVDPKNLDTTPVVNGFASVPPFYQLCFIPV

Cc1ccc(-n2nc3c(N4CCC(C(=O)NCc5ccc(C)o5)CC4)nnc(C)c3c2C)cc1
IC50 [1]: 23 µM (inactive)

Cc1cc(Nc2cccc(O)c2)c2ccccc2n1
EC50 [2]: 5.31 µM (active)

CCC(C)(C(=O)NC1CCCC1)N(CC1CCCO1)C(=O)c1ccc2c(c1)OCO2 (stereo not drawn)
AC50 [3]: 35.5 µM (inconclusive) | AC50 [4]: 5.62 µM (inconclusive) | AC50 [5]: 39.8 µM (inconclusive) | Ki [6]: > 66.7 µM (inactive)

CN(C)S(=O)(=O)c1ccc(C(=O)OCC(=O)c2ccc3c(c2)NC(=O)CO3)cc1
IC50 [1]: 29.3 µM (inactive)

CCn1cc(C(=O)NCc2ccc3c(c2)OCO3)c(=O)c2cc(F)c(N3CCN(C(=O)c4ccco4)CC3)cc21
EC50 [7]: 6.52 µM (active) | EC50 [8]: 20.8 µM (active) | IC50 [1]: 29.4 µM (inactive) | EC50 [9]: > 150 µM (not active)

COc1ccc(-c2noc(N3CCC(C(=O)Nc4ccc(F)cc4F)CC3)n2)cc1
IC50 [10]: > 80 µM (inactive)

Cc1nn(-c2ccccc2)c2nc(C(F)(F)F)cc(O)c12
EC50 [2]: 6.68 µM (active)

N=c1c2c(n(Cc3ccc(Cl)c(Cl)c3)c3c1CCC3)CCCC2
EC50 [11]: 11.9 µM (active) | IC50 [10]: > 80 µM (inactive) | EC50 [12]: 28.9 µM (inconclusive) | AC50 [13]: 2.78 µM (active) | EC50 [14]: > 60 µM (not active) | EC50 [15]: 0.152 µM (active) | EC50 [16]: 14.1 µM (inconclusive) | EC50 [17]: > 150 µM (not active)

Cc1nc(CNS(=O)(=O)c2ccc3ccccc3c2)cs1
IC50 [18]: 37.7 µM (active) | IC50 [19]: > 47.1 µM (inactive) | EC50 [20]: > 53 µM (inactive)

COc1ccccc1C1C(C(=O)c2ccccc2)=C(O)C(=O)N1CCO (stereo not drawn)
AC50 [21]: 39.8 µM (inconclusive) | AC50 [4]: 39.8 µM (inconclusive) | AC50 [5]: 0.794 µM (inconclusive) | Ki [6]: 19.7 µM (inactive)

CCN(CC)C(=O)C1CCCN(Cc2cccc(Oc3ccccc3)c2)C1 (stereo not drawn)
EC50 [2]: 2.37 µM (active)

O=C(O)c1ccc(NS(=O)(=O)c2ccc3c(c2)C(=O)c2cc(S(=O)(=O)Nc4ccc(C(=O)O)cc4)ccc2-3)cc1
IC50 [22]: 95.9 µM (active)

CN(C)C(CNC(=O)c1ccccc1OCc1ccc(Cl)cc1)c1ccco1 (stereo not drawn)
EC50 [2]: 0.0947 µM (active)

O=C(CN1CC(=O)Oc2ccccc21)OCC(=O)c1ccc(Br)cc1
IC50 [18]: 1.61 µM (active)

C=CCn1c(-c2ccc(S(=O)(=O)N3CCOCC3)cc2)cs/c1=N\c1ccccc1
IC50 [18]: > 100 µM (active) | AC50 [23]: 40 µM (active) | AC50 [24]: 1.52 µM (active) | AC50 [25]: 5.6 µM (active)

Cc1n[nH]c(=S)n(/N=C/c2ccccn2)c1=O
IC50 [18]: 6.08 µM (active)

N#C/C(=C\c1cccc(Cl)c1)C(=O)c1ccccc1
IC50 [22]: 64.1 µM (active)
